Reference: ChEMBL document CHEMBL3526037, “Evaluation of the relationship between sex, polymorphisms in CYP2C8 and CYP2C9, and pharmacokinetics of angiotensin receptor blockers” (Drug Metab Dispos, 2013)

Tests used:
[1] = Half life in human plasma expressing CYP2C8*1/*1 polymorphism at 50 mg by LC/MS/MS analysis
[2] = Half life in human plasma expressing CYP2C8*4 allele carrier polymorphism at 50 mg by LC/MS/MS analysis
[3] = Clearance in women plasma at 50 mg by LC/MS/MS analysis; format: ADME, organism-based; settings: female, human
[4] = Half life in women plasma at 50 mg by LC/MS/MS analysis; settings: female, human
[5] = Half life in human plasma expressing CYP2C9*3 allele carrier polymorphism at 50 mg by LC/MS/MS analysis
[6] = Tmax in men plasma at 50 mg by LC/MS/MS analysis; format: ADME, organism-based; settings: male, human
[7] = Clearance in human plasma expressing CYP2C9*3 allele carrier polymorphism at 50 mg by LC/MS/MS analysis; format: ADME, organism-based
[8] = Cmax in human plasma expressing CYP2C8*1/*1 polymorphism at 50 mg by LC/MS/MS analysis; format: ADME, organism-based; set-up: dose 50 mg
[9] = Half life in human plasma expressing CYP2C9*1/*1 polymorphism at 50 mg by LC/MS/MS analysis
[10] = Cmax in human plasma expressing CYP2C8*4 allele carrier polymorphism at 50 mg by LC/MS/MS analysis; format: ADME, organism-based; set-up: dose 50 mg
[11] = AUC in human plasma expressing CYP2C9*1/*1 polymorphism at 50 mg by LC/MS/MS analysis; format: ADME, organism-based
[12] = Tmax in human plasma expressing CYP2C8*1/*1 polymorphism at 50 mg by LC/MS/MS analysis; format: ADME, organism-based
[13] = Clearance in human plasma expressing CYP2C8*3 allele carrier polymorphism at 50 mg by LC/MS/MS analysis; format: ADME, organism-based
[14] = Clearance in human plasma expressing CYP2C8*1/*1 polymorphism at 50 mg by LC/MS/MS analysis; format: ADME, organism-based
[15] = AUC in human plasma expressing CYP2C8*3 allele carrier polymorphism at 50 mg by LC/MS/MS analysis; format: ADME, organism-based
[16] = Tmax in human plasma expressing CYP2C8*3 allele carrier polymorphism at 50 mg by LC/MS/MS analysis; format: ADME, organism-based
[17] = AUC in men plasma at 50 mg by LC/MS/MS analysis; format: ADME, organism-based; settings: male, human
[18] = Clearance in human plasma expressing CYP2C9*1/*1 polymorphism at 50 mg by LC/MS/MS analysis; format: ADME, organism-based
[19] = AUC in human plasma expressing CYP2C8*1/*1 polymorphism at 50 mg by LC/MS/MS analysis; format: ADME, organism-based
[20] = Cmax in human plasma expressing CYP2C8*3 allele carrier polymorphism at 50 mg by LC/MS/MS analysis; format: ADME, organism-based; set-up: dose 50 mg
[21] = Clearance in men plasma at 50 mg by LC/MS/MS analysis; format: ADME, organism-based; settings: male, human
[22] = Cmax in men plasma at 50 mg by LC/MS/MS analysis; format: ADME, organism-based; set-up: dose 50 mg; settings: male, human
[23] = Half life in human plasma expressing CYP2C8*3 allele carrier polymorphism at 50 mg by LC/MS/MS analysis
[24] = Clearance in human plasma expressing CYP2C9*2 allele carrier polymorphism at 50 mg by LC/MS/MS analysis; format: ADME, organism-based
[25] = Cmax in human plasma expressing CYP2C9*1/*1 polymorphism at 50 mg by LC/MS/MS analysis; format: ADME, organism-based; set-up: dose 50 mg
[26] = AUC in human plasma expressing CYP2C8*4 allele carrier polymorphism at 50 mg by LC/MS/MS analysis; format: ADME, organism-based
[27] = Tmax in women plasma at 50 mg by LC/MS/MS analysis; format: ADME, organism-based; settings: female, human
[28] = Tmax in human plasma expressing CYP2C9*2 allele carrier polymorphism at 50 mg by LC/MS/MS analysis; format: ADME, organism-based
[29] = AUC in human plasma expressing CYP2C9*2 allele carrier polymorphism at 50 mg by LC/MS/MS analysis; format: ADME, organism-based
[30] = Tmax in human plasma expressing CYP2C8*4 allele carrier polymorphism at 50 mg by LC/MS/MS analysis; format: ADME, organism-based
[31] = AUC in human plasma expressing CYP2C9*3 allele carrier polymorphism at 50 mg by LC/MS/MS analysis; format: ADME, organism-based
[32] = Half life in human plasma expressing CYP2C9*2 allele carrier polymorphism at 50 mg by LC/MS/MS analysis
[33] = Half life in men plasma at 50 mg by LC/MS/MS analysis; settings: male, human
[34] = Tmax in human plasma expressing CYP2C9*3 allele carrier polymorphism at 50 mg by LC/MS/MS analysis; format: ADME, organism-based
[35] = Clearance in human plasma expressing CYP2C8*4 allele carrier polymorphism at 50 mg by LC/MS/MS analysis; format: ADME, organism-based
[36] = Tmax in human plasma expressing CYP2C9*1/*1 polymorphism at 50 mg by LC/MS/MS analysis; format: ADME, organism-based
[37] = AUC in women plasma at 50 mg by LC/MS/MS analysis; format: ADME, organism-based; settings: female, human

CCCCc1nc(Cl)c(CO)n1Cc1ccc(-c2ccccc2-c2nn[nH]n2)cc1 [LOSARTAN]
half-life [1]: 2.3 h | half-life [2]: 2.7 h | clearance [3]: 30.3 mL/min/kg | half-life [4]: 2.4 h | half-life [5]: 3.1 h | Tmax [6]: 1.2 h | clearance [7]: 21.7 mL/min/kg | Cmax [8]: 263 ng/mL | half-life [9]: 2.3 h | Cmax [10]: 345 ng/mL | AUC [11]: 473 ng·h/mL | Tmax [12]: 1.3 h | clearance [13]: 31.7 mL/min/kg | clearance [14]: 28.3 mL/min/kg | AUC [15]: 413 ng·h/mL | Tmax [16]: 1 h | AUC [17]: 455 ng·h/mL | clearance [18]: 30 mL/min/kg | AUC [19]: 504 ng·h/mL | Cmax [20]: 231 ng/mL | clearance [21]: 27.7 mL/min/kg | Cmax [22]: 234 ng/mL | half-life [23]: 2.5 h | clearance [24]: 31.7 mL/min/kg | Cmax [25]: 258 ng/mL | AUC [26]: 494 ng·h/mL | Tmax [27]: 1.2 h | Tmax [28]: 1.1 h | AUC [29]: 366 ng·h/mL | Tmax [30]: 0.9 h | AUC [31]: 637 ng·h/mL | half-life [32]: 2.4 h | half-life [33]: 2.5 h | Tmax [34]: 1 h | clearance [35]: 26.7 mL/min/kg | Tmax [36]: 1.3 h | AUC [37]: 519 ng·h/mL
